Patent US20250059139A1, “COMPOUNDS FOR TREATMENT OF CANCER” (THE JOHNS HOPKINS UNIVERSITY, priority 2021, published 2025)
Like-named read-outs stand apart in the source and are kept apart here.

Key:
[1] = tested on: human umbilical vein endothelial cells (HUVECs); experiment: Three dimensional (3D) endothelial sprouting assay; assay type: cell-based; conditions: HUVEC, CM-supplemented 3D-fibrin cultures, read-out: IC90 for inhibiting endothelial cell sprouting
Description: Three Dimensional (3D) Endothelial Sprouting Assay. The assay was performed using a minimum of 3 replicate wells of a 48 well tissue culture plate per drug dose per experiment, repeated 3 independent times in which human umbilical vein endothelial cells (HUVECs) obtained from Lonza Walkersville Inc (Walkersville, MD) attached to gelatin-coated dextran microcarrier bead are embedded in a fibrin matrix as described previously (Brennen et al. Oncotarget 7, 71298-71308 (2016)).
Besides its therapeutic effects on cancer cells, TasQ's anti-cancer efficacy also involves its dose-dependent anti-angiogenic activity (see, e.g., Isaacs 2006, Olsson 2010, Dalrymple 2012), Isaacs 2013, Isaacs 2014, Brennen 2016). To clarify the MoA for this anti-angiogenic activity, a 3-dimensional (3D) endothelial cell sprouting assay was used. In this assay, human umbilical vein endothelial cells (HUVECs) in basal media supplemented with VEGF, EGF, FGF, IGF1 and 2% FBS in standard 2D cultures are attached to collagen-coated beads embedded in a 3D-fibrin gel in the same growth factor-supplemented media. […] This lack of sprouting is associated with an upregulation in Mef-2c mRNA (Table 2) and protein (FIG. 38), and its target genes (Table 2) like Alpha 2 Macroglobulin (A2M). […]

[2] = Pharmacokinetic (PK) analysis after oral dosing in mice; assay type: in vivo, mouse; conditions: for half-life: oral, 10 mg/kg
Description: Oral Drug treatment. TasQ at the indicated dose was initially dissolved with equal molar 1 N sodium hydroxide. This solution was diluted with sterile water and the mixture stirred for 1 hr. The pH was then adjusted with 1 N HCl to 8.9 and 200 μL given daily via oral gavage.
Pharmacokinetic (PK) Analysis. Plasma or serum samples; 50 uL of plasma or serum was transferred into a 1.7 mL microfuge tube. Three volumes of acetonitrile containing 0.1% TFA was added and the sample was vortexed for 1 to 3 minute, then centrifuged at 13,000 RPM in a microcentrifuge. 120 uL of the resulting supernatant was loaded into a sample loop with a cut off volume of 100 uL and injected into the HPLC onto a C18 reverse phase column. The HPLC system was a WATERS 600 series quaternary system with a 2487 dual wavelength detector set at 215 nm and 332 nm. Mobile phase A was 5% Acetonitrile/water, 0.1% TFA Mobile phase B was 95% Acetonitrile/water, 0.1% TFA 1.5 mL/min 20% B to 98% B in 10 minutes, hold for 5 minutes return to initial condition for 4 minutes/Retention time for tasquinimod was 11 min, RT for ESATA20 was 13.3 min with no observable interference from endogenous mouse peaks.

[3] = target: T1, nuclear MEF2/HDAC4/NCoR1 formation in CWR-22Rv1 cells (Homo sapiens, UniProt P56524); experiment: Nuclear NCoR1 immunoprecipitated with MEF-2 antibody in CWR-22Rv1 cells under hypoxia; assay type: cell-based; conditions: 1% O2, read-out: IC50 for inhibiting hypoxia-induced nuclear MEF2/HDAC4/NCoR1 formation (MEF-2 and NCoR1 IP)
T1 construct: endogenous in cells; host or cells: CWR-22Rv1 cells, nuclear extracts, 1% O2
T1 sequence (P56524 whole entry): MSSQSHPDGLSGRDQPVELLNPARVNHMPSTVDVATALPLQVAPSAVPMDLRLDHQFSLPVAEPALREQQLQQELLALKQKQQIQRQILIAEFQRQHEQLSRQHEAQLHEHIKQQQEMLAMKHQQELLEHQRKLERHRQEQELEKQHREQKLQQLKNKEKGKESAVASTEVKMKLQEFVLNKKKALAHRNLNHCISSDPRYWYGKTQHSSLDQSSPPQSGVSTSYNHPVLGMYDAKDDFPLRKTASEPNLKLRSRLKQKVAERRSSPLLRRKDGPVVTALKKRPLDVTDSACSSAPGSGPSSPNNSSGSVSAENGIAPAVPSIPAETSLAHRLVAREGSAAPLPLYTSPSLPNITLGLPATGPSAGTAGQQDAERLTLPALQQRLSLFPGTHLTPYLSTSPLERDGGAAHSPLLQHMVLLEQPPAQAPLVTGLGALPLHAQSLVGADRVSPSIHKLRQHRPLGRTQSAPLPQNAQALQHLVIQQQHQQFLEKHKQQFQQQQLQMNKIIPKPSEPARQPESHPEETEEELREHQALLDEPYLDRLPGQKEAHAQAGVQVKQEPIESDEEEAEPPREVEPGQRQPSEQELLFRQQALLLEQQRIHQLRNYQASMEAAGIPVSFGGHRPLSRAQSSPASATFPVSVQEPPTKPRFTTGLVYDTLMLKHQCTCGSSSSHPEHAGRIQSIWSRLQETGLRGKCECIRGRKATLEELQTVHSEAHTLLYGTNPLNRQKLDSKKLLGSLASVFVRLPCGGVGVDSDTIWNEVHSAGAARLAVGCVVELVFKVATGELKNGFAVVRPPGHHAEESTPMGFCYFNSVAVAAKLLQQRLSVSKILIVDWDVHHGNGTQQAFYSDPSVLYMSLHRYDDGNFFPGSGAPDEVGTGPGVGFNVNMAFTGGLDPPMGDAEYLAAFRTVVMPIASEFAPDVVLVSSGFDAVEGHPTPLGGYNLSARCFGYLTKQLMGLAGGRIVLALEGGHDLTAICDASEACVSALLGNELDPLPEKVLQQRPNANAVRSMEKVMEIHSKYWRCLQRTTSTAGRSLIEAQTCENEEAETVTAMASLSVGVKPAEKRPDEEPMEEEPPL
From the text: While HIF-1α is required for the upregulation of hypoxia survival genes, it is not required for the hypoxia-induced widespread transcriptional repression, which is also needed for enhanced survival in the compromised TME (Denko et al. Nat Rev Cancer 8, 705-713 (2008)). MEF-2 is also a HDAC4 client (McKinsey et al. Trends Biochem Sci 27, 40-47 (2002)). MEF-2 dimers bind to target gene promoters, forming a hydrophobic groove composed of AA 1-78 of each monomer to which HDAC4 binds via its amphipathic helix at AA 168-184 (Han et al. J Mol Biol 345, 91-102 (2005)). When MEF-2 binds, HDAC4 forms a NCoR1/HDAC3 complex, which deacetylates MEF2 and histones within its proximity; thereby, repressing expression of its target genes (McKinsey 2002). When CWR-22Rv1 cells are switched from a 21% to a 1% 02 environment in vitro, there is a 3-fold increase in NCoR1 immunoprecipitated with MEF-2 from nuclear extracts (FIG. 36). Co-treatment with TasQ inhibits this hypoxia-induced increase in nuclear MEF2/HDAC4/NCoR1 formation with an IC50 of 5 μM (FIG. 36). These in vitro results are consistent with gene expression analysis of CWR22-RH PDX tissue from castrate hosts in vivo, which document that daily oral TasQ (10 mg/kg/d) inhibits the binding of NCoR1, and thus HDAC3 to the MEF-2/HDAC4 complex, relieving repression of MEF-2 target genes needed for survival under hypoxic conditions (Table 1B).

human AHR = target: T2, human AHR (Homo sapiens, UniProt P35869); experiment: Photo-affinity ligand (PAL) competitive binding to human AHR in liver cytosol of hAHR transgenic mice
T2 construct: from tissue; host or cells: liver cytosol of liver-specific hAHR transgenic mice
T2 sequence (P35869 11-848): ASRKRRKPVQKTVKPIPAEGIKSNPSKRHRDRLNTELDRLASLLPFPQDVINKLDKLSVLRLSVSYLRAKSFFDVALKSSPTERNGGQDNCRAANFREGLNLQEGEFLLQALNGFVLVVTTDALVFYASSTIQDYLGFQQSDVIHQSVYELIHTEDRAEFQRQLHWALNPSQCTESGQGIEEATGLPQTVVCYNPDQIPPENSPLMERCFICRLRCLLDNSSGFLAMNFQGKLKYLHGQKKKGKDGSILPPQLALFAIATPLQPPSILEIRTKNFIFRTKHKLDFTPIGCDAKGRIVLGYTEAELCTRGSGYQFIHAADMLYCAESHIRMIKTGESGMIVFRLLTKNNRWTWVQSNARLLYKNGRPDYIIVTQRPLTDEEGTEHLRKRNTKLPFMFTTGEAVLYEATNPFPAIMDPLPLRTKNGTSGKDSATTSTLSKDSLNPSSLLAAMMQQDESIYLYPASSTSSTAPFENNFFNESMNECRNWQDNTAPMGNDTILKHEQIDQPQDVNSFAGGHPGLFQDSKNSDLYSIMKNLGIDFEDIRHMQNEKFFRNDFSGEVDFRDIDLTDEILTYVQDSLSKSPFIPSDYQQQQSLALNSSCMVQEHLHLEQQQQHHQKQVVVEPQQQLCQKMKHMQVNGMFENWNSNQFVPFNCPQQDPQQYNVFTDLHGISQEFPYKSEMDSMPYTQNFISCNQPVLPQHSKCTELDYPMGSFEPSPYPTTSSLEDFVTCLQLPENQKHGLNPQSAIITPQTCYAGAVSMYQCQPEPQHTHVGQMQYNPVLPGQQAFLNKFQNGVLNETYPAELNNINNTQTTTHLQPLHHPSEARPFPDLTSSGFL
Description: AHR Binding Assay. Photo-affinity competitive ligand binding to the human AHR was performed as described previously (Brennen 2021).
This raises the issue of whether the induction of AHR target genes is a result of TasQ or one of its metabolites binds to AHR as a ligand. To test whether TasQ is an AHR ligand, liver cytosol lacking microsomal CYPs was isolated from liver-specific human AHR (hAHR)-expressing transgenic mice.

| SMILES | IC90 [1] | Cmax ([2]; 10 mg/kg oral dose, read-out: serum Cmax) | serum drug level maintained ([2]; 4-week old FVB male mice, oral 10 mg/kg/d over 14 days) | Cmax ([2]; oral 5 mg/kg/d, 1 hr post-dosing, read-out: serum Cmax) | IC50 [3] | EC50 (human AHR; 20 min competitive binding, liver cytosol of hAHR transgenic mice, read-out: EC50 as competitive ligand for human AHR (PAL assay)) | fold lower bioavailability than TasQ ([2]; 10 mg/kg oral) | drug bound to serum proteins ([2]; mouse, in vivo) | half-life ([2]; mouse, serum, read-out: alpha half-life for tissue distribution (converted)) | half-life ([2]; mouse, serum, read-out: beta half-life for serum elimination) | Cmax ([2]; mouse, serum, 10 mg/kg oral dose) | fold lower binding affinity than TasQ (human AHR; competitive PAL AHR binding assay and cell-based AHR-promoter assay) |
| --- | --- | --- | --- | --- | --- | --- | --- | --- | --- | --- | --- | --- |
| COc1cccc2c1c(O)c(C(=O)N(C)c1ccc(C(F)(F)F)cc1)c(=O)n2C [TasQ, Tasquinimod] | 10 µM | 44 µM | > 1 µM | 20 µM | 5 µM | 1000 nM | – | – | – | – | – | – |
| COc1cccc2c1c(O)c(C(=O)N(c1ccc(C(F)(F)F)cc1)C1CCCCC1)c(=O)n2C [ESATA-20] | 1 µM | – | – | – | < 1 µM | – | 5.5 fold | > 98% | 180 min | 600 to 720 min | 7.91 µM | 10 fold |
